Laboratory results as given in US11919902B2, “Aryl-bipyridine amine derivatives as phosphatidylinositol phosphate kinase inhibitors” (HiberCell, Inc., priority 2017, dated 2024).

Legend:
GST tagged PIP4KtypeIIA = target: T1, GST tagged PIP4KtypeIIA (Homo sapiens, UniProt P48426); assay: ADP-glo kinase assay PIP4K 2A (PIP4KtypeIIA inhibition assay); type: biochemical; conditions: Table 3; compounds listed under IC50 range headings; 10 uM ATP, 0.5 nM PIP4KIIA
T1 construct: made in house; host or cells: E. coli
T1 sequence (P48426 1-406): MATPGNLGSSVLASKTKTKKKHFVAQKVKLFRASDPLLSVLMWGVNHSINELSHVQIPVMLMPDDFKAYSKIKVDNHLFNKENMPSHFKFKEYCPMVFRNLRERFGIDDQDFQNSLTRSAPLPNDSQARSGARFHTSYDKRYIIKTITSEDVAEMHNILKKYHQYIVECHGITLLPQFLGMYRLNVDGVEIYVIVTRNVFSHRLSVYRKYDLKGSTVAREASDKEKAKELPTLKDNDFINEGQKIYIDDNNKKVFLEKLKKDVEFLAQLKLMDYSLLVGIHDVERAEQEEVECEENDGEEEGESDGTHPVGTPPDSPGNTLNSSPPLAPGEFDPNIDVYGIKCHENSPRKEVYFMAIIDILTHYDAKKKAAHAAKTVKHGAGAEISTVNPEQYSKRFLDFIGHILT
Summary of the method: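 Read-out was ADP-Glo luminescence converted to μM ADP, with IC50 plotted as % of no-inhibitor activity against log concentration. Reactions contained 10 μM ATP, 80 μM PI5P with DOPE carrier, and 0.5 nM GST-tagged PIP4KIIA (E. coli-expressed) in pH 7.3 HEPES/MgCl2 buffer with 5% DMSO. Enzyme and compound (≤4.8 μM) were preincubated 1 h at 27 °C before the 1 h reaction.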

GST tagged PIP4KtypeIIB = target: T2, GST tagged PIP4KtypeIIB (Homo sapiens, UniProt P78356); assay: Trans-FI P kinase assay PIP4K2B (PIP4KtypeIIB inhibition assay); type: biochemical; conditions: Table 4; compounds listed under IC50 range headings; 100 uM GTP, 5 nM PIP4KIIB; read-out: Trans-FI P kinase assays: PIP4K2B IC50
T2 construct: made in house; host or cells: E. coli
T2 sequence (P78356 1-416): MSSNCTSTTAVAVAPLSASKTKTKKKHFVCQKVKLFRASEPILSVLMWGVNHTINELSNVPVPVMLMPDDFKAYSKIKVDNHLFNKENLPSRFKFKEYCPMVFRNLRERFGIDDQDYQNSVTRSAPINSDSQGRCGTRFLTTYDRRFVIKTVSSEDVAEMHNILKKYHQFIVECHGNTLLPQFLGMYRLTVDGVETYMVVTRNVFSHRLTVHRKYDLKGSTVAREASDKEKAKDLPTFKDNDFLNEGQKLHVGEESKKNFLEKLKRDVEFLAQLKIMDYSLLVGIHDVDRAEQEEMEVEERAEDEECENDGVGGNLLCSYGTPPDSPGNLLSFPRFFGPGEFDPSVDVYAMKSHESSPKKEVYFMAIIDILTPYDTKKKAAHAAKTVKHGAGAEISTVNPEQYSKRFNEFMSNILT
Summary of the method: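 Transcreener FI fluorescence, converted to GDP by calibration, tracked product from 5 nM E. coli-expressed GST-PIP4KIIB acting on 80 uM PI5P (DOPE carrier) with 100 uM GTP. Compound (top 4.8 uM final, 5% DMSO) was preincubated 1 h at 27 C before the 2 h reaction; IC50 fitted from residual activity.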

[1] = target: T3, PIP4K2A (full length protein, SignalChem) (Homo sapiens, UniProt P48426); assay: Kinase Assay PIP4K2 A (Sprint); ADP-Glo biochemical assay; conditions: Table 2; compounds listed under IC50 range headings
T3 construct: 4 nM PIP4K2A (full length protein, SignalChem); purchased SignalChem
T3 sequence (P48426 1-406): T1 sequence (P48426 1-406)
Summary of the method: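 ADP-Glo luminescence detected ADP after a 1 h RT reaction started with 60 μM ATP solution. Before that, full-length PIP4K2A (4 nM in mix) with 100 μM PI(5)P diC8 was pre-incubated 15 min with compounds in MOPS buffer pH 7.2, 25 mM MgCl2, 0.005% Tween 20. IC50 derived from % inhibition relative to DMSO over 10 three-fold concentrations.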

Row | SMILES | IC50 (GST tagged PIP4KtypeIIA) | IC50 (GST tagged PIP4KtypeIIB) | IC50 [1]
1 | Nc1ncc(-c2ccnc3[nH]c(C(=O)NCc4ccccc4)cc23)cc1-c1ccc(C(=O)NCc2ccccc2)cn1 [Example 221, 4-(2′-amino-5-(benzylcarbamoyl)-[2,3′-bipyridin]-5′-yl)-N-benzyl-1H-pyrrolo[2,3-b]pyridine-2-carboxamide] | > 5000 nM | 1000 to 2500 nM | < 5000 nM
2 | O=C1CCCN1c1ccc(-c2cncc(-c3ncnc4n[nH]cc34)c2)cc1 [Example 223, 1-(4-(5-(2H-pyrazolo[3,4-d]pyrimidin-4-yl)pyridin-3-yl)phenyl)pyrrolidin-2-one] | 100 to 1000 nM | 100 to 1000 nM | 100 to 1000 nM
3 | O=C1CCCN1c1ccc(-c2cncc(-c3cc(Cl)nc4n[nH]cc34)c2)cc1 [Example 224, 1-(4-(5-(6-chloro-2H-pyrazolo[3,4-b]pyridin-4-yl)pyridin-3-yl)phenyl)pyrrolidin-2-one] | 10 to 100 nM | 10 to 100 nM | 5 to 100 nM
4 | Cc1nc(-c2cncc(-c3ccc(N4CCCC4=O)cc3)c2)c2cn[nH]c2n1 [Example 225, 1-(4-(5-(6-methyl-2H-pyrazolo[3,4-d]pyrimidin-4-yl)pyridin-3-yl)phenyl)pyrrolidin-2-one] | 100 to 1000 nM | 100 to 1000 nM | 100 to 1000 nM
5 | CN(C)C(=O)c1cnc2n[nH]c(-c3cncc(-c4ccc(N5CCCC5=O)cc4)c3)c2c1 [Example 227, N,N-dimethyl-3-(5-(4-(2-oxopyrrolidin-1-yl)phenyl)pyridin-3-yl)-2H-pyrazolo[3,4-b]pyridine-5-carboxamide] | 100 to 1000 nM | 100 to 1000 nM | 5 to 100 nM
6 | CN(C)C(=O)c1cnc2c(c1)c(-c1cncc(-c3ccc(N4CCCC4=O)cc3)c1)nn2C [Example 231, N,N,1-trimethyl-3-(5-(4-(2-oxopyrrolidin-1-yl)phenyl)pyridin-3-yl)-1H-pyrazolo[3,4-b]pyridine-5-carboxamide] | 100 to 1000 nM | 1000 to 2500 nM | 100 to 1000 nM
7 | CN(C)C(=O)c1cc2c(-c3cncc(-c4ccc(N5CCCC5=O)cc4)c3)ccnc2[nH]1 [Example 241, N,N-dimethyl-4-(5-(4-(2-oxopyrrolidin-1-yl)phenyl)pyridin-3-yl)-1H-pyrrolo[2,3-b]pyridine-2-carboxamide] | 10 to 100 nM | 10 to 100 nM | 5 to 100 nM
8 | Cn1ccc2c(-c3cncc(-c4ccc(N5CCCC5=O)cc4)c3)cn(C)c2c1=O [Example 243, 1,6-dimethyl-3-(5-(4-(2-oxopyrrolidin-1-yl)phenyl)pyridin-3-yl)-1,6-dihydro-7H-pyrrolo[2,3-c]pyridin-7-one] | 100 to 1000 nM | 100 to 1000 nM | 100 to 1000 nM
9 | Cc1c(-c2cncc(-c3ccc(N4CCCC4=O)cc3)c2)c2cc(C(=O)N(C)C)cnc2n1C [Example 249, N,N,1,2-tetramethyl-3-(5-(4-(2-oxopyrrolidin-1-yl)phenyl)pyridin-3-yl)-1H-pyrrolo[2,3-b]pyridine-5-carboxamide] | 100 to 1000 nM | 100 to 1000 nM | 5 to 100 nM
10 | Cc1[nH]c2ncc(C(=O)N(C)C)cc2c1-c1cncc(-c2ccc(N3CCCC3=O)cc2)c1 [Example 250, N,N,2-trimethyl-3-(5-(4-(2-oxopyrrolidin-1-yl)phenyl)pyridin-3-yl)-1H-pyrrolo[2,3-b]pyridine-5-carboxamide] | 100 to 1000 nM | 100 to 1000 nM | 5 to 100 nM
11 | COc1cc(-c2cncc(-c3ccc(N4CCCC4=O)cc3)c2)c2c[nH]nc2n1 [Example 257, 1-(4-(5-(6-methoxy-2H-pyrazolo[3,4-b]pyridin-4-yl)pyridin-3-yl)phenyl)pyrrolidin-2-one] | 100 to 1000 nM | 100 to 1000 nM | 100 to 1000 nM
12 | COc1ncc(-c2cnc(N)c(-c3ccc(N4CCCC4=O)cc3)c2)c2cn[nH]c12 [Example 258, 1-(4-(2-amino-5-(7-methoxy-2H-pyrazolo[3,4-c]pyridin-4-yl)pyridin-3-yl)phenyl)pyrrolidin-2-one] | 100 to 1000 nM | 100 to 1000 nM | 5 to 100 nM
13 | O=C1CCCN1c1ccc(-c2cncc(-c3cc(C4CC4)nc4n[nH]cc34)c2)cc1 [Example 267, 1-(4-(5-(6-cyclopropyl-2H-pyrazolo[3,4-b]pyridin-4-yl)pyridin-3-yl)phenyl)pyrrolidin-2-one] | 100 to 1000 nM | 100 to 1000 nM | 5 to 100 nM
14 | O=C1CCCN1c1ccc(-c2cncc(-c3c(OC4CCOCC4)cnc4[nH]ccc34)c2)cc1 [Example 268, 1-(4-(5-(5-((tetrahydro-2H-pyran-4-yl)oxy)-1H-pyrrolo[2,3-b]pyridin-4-yl)pyridin-3-yl)phenyl)pyrrolidin-2-one] | > 5000 nM | 1000 to 2500 nM | 1000 to 2500 nM
15 | COc1ncc(-c2cncc(-c3ccc(N4CCCC4=O)cc3)c2)c2c[nH]nc12 [Example 270, 1-(4-(5-(7-methoxy-2H-pyrazolo[3,4-c]pyridin-4-yl)pyridin-3-yl)phenyl)pyrrolidin-2-one] | 100 to 1000 nM | 100 to 1000 nM | 5 to 100 nM
16 | O=C1CCCN1c1ccc(-c2cncc(-c3cnc4nccn4c3)c2)cc1 [Example 275, 1-(4-(5-(imidazo[1,2-a]pyrimidin-6-yl)pyridin-3-yl)phenyl)pyrrolidin-2-one] | 100 to 1000 nM | 2500 to 5000 nM | 100 to 1000 nM
17 | O=C(NCc1ccc2c(c1)COB2O)c1cc2c(-c3cncc(-c4ccc(N5CCCC5=O)cc4)c3)ccnc2[nH]1 [Example 276, N-((1-hydroxy-1,3-dihydrobenzo[c][1,2]oxaborol-5-yl)methyl)-4-(5-(4-(2-oxopyrrolidin-1-yl)phenyl)pyridin-3-yl)-1H-pyrrolo[2,3-b]pyridine-2-carboxamide] | 100 to 1000 nM | 10 to 100 nM | 5 to 100 nM
18 | COC(=O)c1cc2c(-c3cncc(-c4ccc(N5CCCC5=O)cc4)c3)ccnc2[nH]1 [Example 302, methyl 4-(5-(4-(2-oxopyrrolidin-1-yl)phenyl)pyridin-3-yl)-1H-pyrrolo[2,3-b]pyridine-2-carboxylate] | 10 to 100 nM | 10 to 100 nM | 5 to 100 nM
19 | CN1CCn2c(cc3c(-c4cncc(-c5ccc(N6CCCCCC6=O)cc5)c4)ccnc32)C1=O [Example 345, 7-methyl-4-(5-(4-(2-oxoazepan-1-yl)phenyl)pyridin-3-yl)-8,9-dihydropyrido[3′,2′:4,5]pyrrolo[1,2-a]pyrazin-6(7H)-one] | 100 to 1000 nM | 10 to 100 nM | 100 to 1000 nM
20 | CN1CCn2c(cc3c(-c4cncc(-c5ccc(N6CCCCC6=O)cc5)c4)ccnc32)C1=O [Example 346, 7-methyl-4-(5-(4-(2-oxopiperidin-1-yl)phenyl)pyridin-3-yl)-8,9-dihydropyrido[3′,2′:4,5]pyrrolo[1,2-a]pyrazin-6(7H)-one] | 100 to 1000 nM | 100 to 1000 nM | 100 to 1000 nM
21 | CN1CCn2c(cc3c(-c4cncc(-c5ccc(C(=O)N6CCCCC6)cc5)c4)ccnc32)C1=O [Example 354, 7-methyl-4-(5-(4-(piperidine-1-carbonyl)phenyl)pyridin-3-yl)-8,9-dihydropyrido[3′,2′:4,5]pyrrolo[1,2-a]pyrazin-6(7H)-one] | 100 to 1000 nM | 10 to 100 nM | 100 to 1000 nM
22 | Cn1cc(-c2cnc(N)nc2)c2cc(-c3cncc(-c4ccc(N5CCCC5=O)cc4)c3)cnc21 [Example 355, 1-(4-(5-(3-(2-aminopyrimidin-5-yl)-1-methyl-1H-pyrrolo[2,3-b]pyridin-5-yl)pyridin-3-yl)phenyl)pyrrolidin-2-one] | 10 to 100 nM | 100 to 1000 nM | 5 to 100 nM
